# Laboratory results taken from patent US20230278998A1, “Compound containing structure of a five-membered heteroaromatic ring, pharmaceutical compositions thereof and applications thereof” (280 Bio, Inc., priority 2022, published 2023).
# Target: PARG (389-976) (Homo sapiens (Human), UniProt Q86W56)
# Assay: PARG enzyme inhibition assay (TR-FRET)
# Assay type: biochemical
# Settings: Table 3, class symbol
# Description: PARG Enzyme Inhibition Assay
# PARG in vitro assays were conducted in standard 384-well plates in a total volume of 15 μL.
# PARG (389-976), sequence (Q86W56 389-976): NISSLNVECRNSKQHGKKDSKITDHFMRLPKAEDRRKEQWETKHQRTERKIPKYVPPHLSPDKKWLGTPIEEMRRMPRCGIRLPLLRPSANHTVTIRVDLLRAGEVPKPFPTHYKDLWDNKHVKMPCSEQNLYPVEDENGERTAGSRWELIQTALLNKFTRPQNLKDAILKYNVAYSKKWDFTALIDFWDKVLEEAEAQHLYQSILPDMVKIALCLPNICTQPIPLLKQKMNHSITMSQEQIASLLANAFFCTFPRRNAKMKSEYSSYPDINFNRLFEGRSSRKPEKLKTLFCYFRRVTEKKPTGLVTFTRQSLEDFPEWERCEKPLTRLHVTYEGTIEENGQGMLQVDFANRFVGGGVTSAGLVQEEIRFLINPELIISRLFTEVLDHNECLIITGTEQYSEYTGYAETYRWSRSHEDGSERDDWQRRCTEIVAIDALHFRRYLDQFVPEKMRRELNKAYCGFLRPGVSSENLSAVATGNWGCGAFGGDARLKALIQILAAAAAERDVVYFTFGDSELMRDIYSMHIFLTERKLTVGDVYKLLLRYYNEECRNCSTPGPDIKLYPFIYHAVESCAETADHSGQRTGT
row,IC50 [nM],Structure (SMILES)
1,< 100,C[C@H](O)C(=O)N1C2CCC1CN(c1cc(S(=O)(=O)NC3(C#N)CC3)cc3c(-c4nnc(C(F)F)s4)nn(C)c13)C2 [Compound 72]
2,< 100,C[C@H](N)C(=O)N1C2CCC1CN(c1cc(S(=O)(=O)NC3(C#N)CC3)cc3c(-c4nnc(C(F)F)s4)nn(C)c13)C2 [Compound 73]
3,< 100,CN1CCC(C(=O)N2C3CCC2CN(c2cc(S(=O)(=O)NC4(C#N)CC4)cc4c(-c5nnc(C(F)F)s5)nn(C)c24)C3)C1 (stereo not drawn) [Compound 74]
4,< 100,Cn1nc(-c2nnc(C(F)F)s2)c2cc(S(=O)(=O)NC3(C#N)CC3)cc(N3CC4CCC(C3)N4C(=O)C3CCCC3)c21 [Compound 75]
5,< 100,Cn1nc(-c2nnc(C(F)F)s2)c2cc(S(=O)(=O)NC3(C#N)CC3)cc(N3CCC(C(C)(C)O)CC3)c21 [Compound 76]
6,< 100,CC(C)C(=O)N1CC2(C1)CN(c1cc(S(=O)(=O)NC3(C#N)CC3)cc3c(-c4nnc(C(F)F)s4)nn(C)c13)C2 [Compound 77]
7,< 100,C[C@H](O)C(=O)N1C2C=C(c3cc(S(=O)(=O)NC4(C#N)CC4)cc4c(-c5nnc(C(F)F)s5)nn(C)c34)CC1CC2 (stereo partly drawn) [Compound 80]
8,< 100,C[C@H](N)C(=O)N1CC=C(c2cc(S(=O)(=O)NC3(C#N)CC3)cc3c(-c4nnc(C(F)F)s4)nn(C)c23)CC1 [Compound 81]
9,< 100,CC(C)C(=O)N1CCN(c2cc(S(=O)(=O)NC3(C)CC3)cc3c(-c4nnc(C(F)F)s4)nn(C)c23)C[C@@H]1C [Compound 82]
10,< 100,CC(C)C(=O)N1C2C=C(c3cc(S(=O)(=O)NC4(C#N)CC4)cc4c(-c5nnc(C(F)F)s5)nn(C)c34)CC1CCC2 (stereo not drawn) [Compound 83]
11,< 100,CC(C)C(=O)N1C2C=C(c3cc(S(=O)(=O)NC4(C#N)CC4)cc4c(-c5nnc(C(F)F)s5)nn(C)c34)CC1COC2 (stereo not drawn) [Compound 85]
12,< 100,CC(C)C(=O)N1C2COCC1CN(c1cc(S(=O)(=O)NC3(C#N)CC3)cc3c(-c4nnc(C(F)F)s4)nn(C)c13)C2 [Compound 86]
13,< 100,Cn1nc(-c2nnc(C(F)F)s2)c2cc(S(=O)(=O)NC3(C#N)CC3)cc(N3CCC(C(=O)N4CCCC4)CC3)c21 [Compound 89]
14,< 100,CN(C)C(=O)C1CCN(c2cc(S(=O)(=O)NC3(C#N)CC3)cc3c(-c4nnc(C(F)F)s4)nn(C)c23)CC1 [Compound 90]
15,< 100,CCn1nc(-c2nnc(C(F)F)s2)c2cc(S(=O)(=O)NC3(C)CC3)cc(N3CCN(C(=O)C(C)C)[C@@H](C)C3)c21 [Compound 92]
16,< 100,CC(C)C(=O)N1C2CCC1CN(c1cc(S(=O)(=O)NC3(C#N)CC3)cc3c(-c4nnc(C(F)F)s4)nn(CC(F)(F)F)c13)C2 [Compound 95]
17,100 to 1000,COc1ccc(CN(C2(C#N)CC2)S(=O)(=O)c2cc(N3CC4CCC(C3)N4C(=O)C(C)C)c3c(c2)c(-c2nnc(C(F)F)s2)nn3CCO)cc1 [Compound 96]
18,< 100,C[C@H](N)C(=O)N1CCC(c2cc(S(=O)(=O)NC3(C#N)CC3)cc3c(-c4nnc(C(F)F)s4)nn(C)c23)CC1 [Compound 98]
19,< 100,COCCn1nc2c(N3CC4CCC(C3)N4C(=O)C(C)C)cc(S(=O)(=O)NC3(C#N)CC3)cc2c1-c1nnc(C(F)F)s1 [Compound 99]
20,< 100,CCn1nc(-c2nnc(C(F)F)s2)c2cc(S(=O)(=O)NC3(C#N)CC3)cc(N3CCN(C(=O)C(C)C)[C@H](C)C3)c21 [Compound 103]
21,< 100,CC(C)C(=O)N1[C@H](C)CN(c2cc(S(=O)(=O)NC3(C#N)CC3)cc3c(-c4nnc(C(F)F)s4)nn(CC(F)(F)F)c23)C[C@@H]1C [Compound 104]
22,< 100,CC(C)(O)C1CCN(c2cc(S(=O)(=O)NC3(C#N)CC3)cc3c(-c4nnc(C(F)F)s4)nn(CC(F)(F)F)c23)CC1 [Compound 105]

row,IC50 [nM],Structure (SMILES)
1,< 100,Cn1nc(-c2nnc(C(F)F)s2)c2cc(S(=O)(=O)NC3(C#N)CC3)cc(N3CC4(CCOCC4)C3)c21 [Compound 106]
2,< 100,CC(C)C(=O)N1CC=C(c2cc(S(=O)(=O)NC3(C#N)CC3)cc3c(-c4nnc(C(F)F)s4)nn(CC(F)(F)F)c23)CC1 [Compound 107]
3,< 100,CC(C)C(=O)N1CCN(c2cc(S(=O)(=O)NC3(C#N)CC3)cc3c(-c4nnc(C(F)F)s4)nn(CC(F)(F)F)c23)C[C@@H]1C [Compound 108]
4,< 100,CC(C)C(=O)N1CCN(c2cc(S(=O)(=O)NC3(C#N)CC3)cc3c(-c4nnc(C(F)F)s4)nn(CC(F)(F)F)c23)C[C@H]1C [Compound 109]
5,< 100,C[C@H](O)C(=O)N1CCN(c2cc(S(=O)(=O)NC3(C#N)CC3)cc3c(-c4nnc(C(F)F)s4)nn(CC(F)(F)F)c23)CC1 [Compound 110]
6,< 100,C[C@H](N)C(=O)N1CCN(c2cc(S(=O)(=O)NC3(C#N)CC3)cc3c(-c4nnc(C(F)F)s4)nn(CC(F)(F)F)c23)CC1 [Compound 111]
7,< 100,Cn1nc(-c2nnc(C(F)F)s2)c2cc(S(=O)(=O)NC3(C#N)CC3)cc(N3CC4CCC(C3)C4C(=O)N3CCCC3)c21 (stereo not drawn) [Compound 113]
8,< 100,C[C@H](O)C(=O)N1CCC(c2cc(S(=O)(=O)NC3(C#N)CC3)cc3c(-c4nnc(C(F)F)s4)nn(C)c23)CC1 [Compound 114]
9,< 100,CC(C)C(=O)N1CCN(c2cc(S(=O)(=O)NC3(C#N)CC3)cc3c(-c4nnc(C(F)F)s4)nn(CC#N)c23)C[C@H]1C [Compound 115]
10,< 100,CC(C)C(=O)N1CCC(c2cc(S(=O)(=O)NC3(C#N)CC3)cc3c(-c4nnc(C(F)F)s4)nn(C)c23)CC1 [Compound 116]
11,< 100,N#CC1(NS(=O)(=O)c2cc(C3=CC4CCC(C3)N4C(=O)C3CCCC3)c3c(c2)c(-c2nnc(C(F)F)s2)nn3CC(F)(F)F)CC1 (stereo not drawn) [Compound 119]
12,< 100,CC(C)C(=O)N1C2C=C(c3cc(S(=O)(=O)NC4(C#N)CC4)cc4c(-c5nnc(C(F)F)s5)nn(C)c34)CC1CC2 (stereo not drawn) [Compound 120]
13,< 100,CC(C)C(=O)N1C2CCC1CN(c1cc(S(=O)(=O)NC3(C#N)CC3)cc3c(-c4nnc(C(F)F)s4)nn(CC#N)c13)C2 [Compound 122]
14,< 100,CC(C)C(=O)N1C2CCC1CC(c1cc(S(=O)(=O)NC3(C#N)CC3)cc3c(-c4nnc(C(F)F)s4)nn(C)c13)C2 (stereo not drawn) [Compound 127]
15,100 to 1000,Cn1nc(-c2nnc(C(F)F)s2)c2cc(S(=O)(=O)NC3(C#N)CC3)cc(N3CC4CCC(C3)C4C(C)(C)O)c21 (stereo not drawn) [Compound 130]
16,< 100,N#CC1(NS(=O)(=O)c2cc(N3CC4(CCOCC4)C3)c3c(c2)c(-c2nnc(C(F)F)s2)nn3CC(F)(F)F)CC1 [Compound 133]
17,< 100,Cn1nc(-c2nnc(C(F)F)s2)c2cc(S(=O)(=O)NC3(C#N)CC3)cc(N3CCC(N4CCCC4)CC3)c21 [Compound 134]
18,< 100,Cn1nc(-c2nnc(C(F)F)s2)c2cc(S(=O)(=O)NC3(C#N)CC3)cc(-c3ccc(C(=O)N4CCCC4)cc3)c21 [Compound 135]
19,< 100,Cn1nc(-c2nnc(C(F)F)s2)c2cc(S(=O)(=O)NC3(C#N)CC3)cc(N3CCN(C(=O)C4CCCC4)CC3)c21 [Compound 142]
20,< 100,Cn1nc(-c2nnc(C(F)F)s2)c2cc(S(=O)(=O)NC3(C#N)CC3)cc(N3CCN(C(=O)C4(C)CCC4)CC3)c21 [Compound 143]
21,< 100,Cn1nc(-c2nnc(C(F)F)s2)c2cc(S(=O)(=O)NC3(C#N)CC3)cc(N3CCN(C(=O)C4CCC4)CC3)c21 [Compound 144]

row,Structure (SMILES),IC50 [nM]
1,C[C@H](N)C(=O)N1C2C=C(c3cc(S(=O)(=O)NC4(C#N)CC4)cc4c(-c5nnc(C(F)F)s5)nn(C)c34)CC1CC2 (stereo partly drawn) [Compound 79],< 100
2,CC(C)C(=O)N1C2CCCC1CN(c1cc(S(=O)(=O)NC3(C#N)CC3)cc3c(-c4nnc(C(F)F)s4)nn(C)c13)C2 [Compound 84],< 100
3,CCn1nc(-c2nnc(C(F)F)s2)c2cc(S(=O)(=O)NC3(C#N)CC3)cc(N3CC4CCC(C3)N4C(=O)C(C)C)c21 [Compound 93],< 100
4,CCn1nc(-c2nnc(C(F)F)s2)c2cc(S(=O)(=O)NC3(C#N)CC3)cc(N3C4CCC3CN(C(=O)C(C)C)C4)c21 [Compound 94],< 100
5,CC(C)C(=O)N1CC2CCC(C1)N2c1cc(S(=O)(=O)NC2(C#N)CC2)cc2c(-c3nnc(C(F)F)s3)nn(C)c12 [Compound 101],< 100
6,CC(C)C(=O)N1C2CCC1CN(c1cc(S(=O)(=O)NC3(C#N)CC3)cc3c(-c4nnc(C(F)F)s4)nn(C)c13)C2 [Compound 102],< 100
7,CC(C)C(=O)N1CCN2c3cc(S(=O)(=O)NC4(C#N)CC4)cc4c(-c5nnc(C(F)F)s5)nn(c34)CC2C1 (stereo not drawn) [Compound 117],< 100
8,Cn1nc(-c2nnc(C(F)F)s2)c2cc(S(=O)(=O)NC3(C#N)CC3)cc(C3CC4CCC(C3)N4)c21 (stereo not drawn) [Compound 121],< 100
9,CC(C)C(=O)N1C2CCC1CN(c1cc(S(=O)(=O)NC3(C#N)CC3)cc3c(-c4nnc(C(F)F)s4)cn(C)c13)C2 [Compound 123],< 100
10,C[C@H](N)C(=O)N1C2CCC1CC(c1cc(S(=O)(=O)NC3(C#N)CC3)cc3c(-c4nnc(C(F)F)s4)nn(C)c13)C2 (stereo partly drawn) [Compound 128],< 100
11,CC(C)C(=O)N1CCN(c2cc(S(=O)(=O)NC(C)(C)C)cc3c(-c4nnc(C(F)F)s4)nn(C)c23)CC1 [Compound 131],< 100
12,CN(C)C(=O)c1ccc(-c2cc(S(=O)(=O)NC3(C#N)CC3)cc3c(-c4nnc(C(F)F)s4)nn(C)c23)cc1 [Compound 132],< 100
13,CC(C)C(=O)N1CC=C(c2cc(S(=O)(=O)NC3(C#N)CC3)cc3c(-c4nnc(C(F)F)s4)nn(C[C@@H](O)CO)c23)CC1 [Compound 136],< 100
14,Cn1nc(-c2nnc(C(F)F)s2)c2cc(S(=O)(=O)NC3(C#N)CC3)cc(C3=CCC(C(=O)N4CCCC4)CC3)c21 (stereo not drawn) [Compound 137],< 100
15,Cn1nc(-c2nnc(C(F)F)s2)c2cc(S(=O)(=O)NC3(C#N)CC3)cc(N3CCC(N4CCCC4=O)CC3)c21 [Compound 139],< 100
16,Cn1nc(-c2nnc(C(F)F)s2)c2cc(S(=O)(=O)NC3(C#N)CC3)cc(C3CCC(C(=O)N4CCCC4)CC3)c21 (stereo not drawn) [Compound 140],< 100
17,CC(C)S(=O)(=O)N1CC=C(c2cc(S(=O)(=O)NC3(C#N)CC3)cc3c(-c4nnc(C(F)F)s4)nn(C)c23)CC1 [Compound 141],< 100
